Laboratory results from patent US20240158393A1, “PYRIDONE COMPOUNDS AND METHODS OF USE” (Exelixis, Inc., priority 2021, published 2024).
Values belong to the molecule of their own block, whether it stands above or below them.

What was measured:
Format in all cases: biochemical
[1] = molecular target: T1, Human KDR (Homo sapiens, UniProt P35968); experiment: Human KDR kinase assay (33P radiometric / HTRF KinEase); settings: protocols of Examples B-1 and/or B-2
T1 construct: Human KDR (residues K790-V1356, 55 nM); purchased Eurofins Pharma Discovery Services UK Limited (KinaseProfiler, B-1) and/or CarnaBio (B-2)
T1 sequence (P35968 790-1356): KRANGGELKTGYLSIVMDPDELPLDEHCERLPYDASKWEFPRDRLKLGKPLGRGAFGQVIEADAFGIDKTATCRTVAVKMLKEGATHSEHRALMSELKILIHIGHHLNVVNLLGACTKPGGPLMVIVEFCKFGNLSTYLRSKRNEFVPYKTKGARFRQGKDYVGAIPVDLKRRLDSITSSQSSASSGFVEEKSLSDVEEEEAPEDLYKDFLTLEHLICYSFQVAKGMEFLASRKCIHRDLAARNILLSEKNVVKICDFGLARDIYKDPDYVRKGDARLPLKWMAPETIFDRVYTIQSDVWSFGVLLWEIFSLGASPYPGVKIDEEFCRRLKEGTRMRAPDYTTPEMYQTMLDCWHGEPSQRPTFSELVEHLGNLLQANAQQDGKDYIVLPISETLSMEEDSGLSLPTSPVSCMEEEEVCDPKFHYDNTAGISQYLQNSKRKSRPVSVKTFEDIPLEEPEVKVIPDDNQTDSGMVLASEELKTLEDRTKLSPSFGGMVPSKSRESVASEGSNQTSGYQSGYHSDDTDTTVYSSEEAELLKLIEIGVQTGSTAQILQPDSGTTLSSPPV
Protocol: (§1) Kinase activity and compound inhibition were investigated using the ^33P-Phosphoryl transfer radiometric kinase assay, performed using the KinaseProfiler™ service of Eurofins Pharma Discovery Services UK Limited. Dose-response experiments were performed using nine compound concentrations in a 96-well microtiter plate. For each assay, all compounds were prepared to a 50× final assay concentration (50 μM) in 100% DMSO, then diluted in a half-log series, with the final top concentration at 1 μM. This working stock of the compound was added to the assay well as the first component in the reaction, followed by the remaining components as detailed in the following assay protocols below. The positive control wells (100% kinase activity) contain all components of the reaction including 2% DMSO (control for solvent effects), except the compound of interest. Blank wells contain all components of the reaction, with the reference inhibitor, staurosporine. This reference compound was used to abolish kinase activity and generated the 0% kinase activity base-line. IC50 values were calculated by nonlinear regression analysis using the sigmoidal dose-response (variable slope) curve fit on XLFit version 5.3 (ID Business Solutions).
(§2) Kinase activity and compound inhibition were also investigated using the HTRF® KinEase assay (Cisbio Cat #62TKOPEB) per manufacturer's instructions. In short, compounds were delivered in 300 nL volumes at 10 different concentrations in DMSO (3% final) to empty 384-well assay plates (Corning cat #3824). A mixture of enzyme, 1 μM biotinylated peptide substrate, and buffer in 10 μL volume was added. The assay was started upon the addition of ATP (at Km). The 10 μL reaction was incubated at room temperature. The reaction was stopped upon the addition of detection buffer containing streptavidin-XL665 (5 μL) and TK antibody-Eu3+(5 μL). After a 60 min incubation at room temperature, the fluorescence at 665 nm and 620 nm was read on an Envision microplate reader (Perkin Elmer).
(§3) Kinase activity normalized to DMSO (100% activity) and reference compound at 1 μM and (0% activity) was calculated using the fluorescence ratio […]. IC50 values were calculated by nonlinear regression analysis using a 4-parameter logistic curve fit in ActivityBase XE (IDBS).
(§4) Example B-1: Human KDR (residues K790-V1356, 55 nM) was incubated with 8 mM MOPS pH 7.0, 0.2 mM EDTA, 0.33 mg/mL myelin basic protein, 10 mM magnesium acetate, and 10 μM [γ-^33P-ATP]. The reaction was initiated by the addition of the Mg/ATP mix. After incubation for 40 minutes at room temperature, the reaction was stopped by the addition of phosphoric acid to a concentration of 0.5%. A reaction aliquot of 10 μL was then spotted onto a P30 filtermat and washed four times for 4 minutes in 0.425% phosphoric acid and once in methanol prior to drying and scintillation counting. Incorporated ^33P was measured using the Wallac Microbeta scintillation counter (Perkin Elmer).
(§5) Example B-2: Human KDR (residues 790-1356; CarnaBio, 0.1 ng/well) was also incubated with enzymatic buffer (Cisbio) supplemented with 5 mM MgCl2, 1 mM MnCl2, and 1 mM DTT. The mixture was added to the pre-plated compounds. The reaction was initiated upon addition of ATP at Km (4.0 μM). The reaction was incubated at room temperature for 40 min and stopped upon the addition of SA-XL665 and TK-antibody both diluted in EDTA-containing kinase detection buffer (Cisbio). The kinase activity was calculated as stated above and the IC50 values were reported.

[2] = molecular target: T2, Human Met (Homo sapiens, UniProt P08581); experiment: Human Met kinase assay (33P radiometric / HTRF KinEase); settings: protocols of Examples D-1 and/or D-2; read-out: c-Met IC50
T2 construct: Human MET (residues 956-1390)
T2 sequence (P08581 974-1390 limits assumed): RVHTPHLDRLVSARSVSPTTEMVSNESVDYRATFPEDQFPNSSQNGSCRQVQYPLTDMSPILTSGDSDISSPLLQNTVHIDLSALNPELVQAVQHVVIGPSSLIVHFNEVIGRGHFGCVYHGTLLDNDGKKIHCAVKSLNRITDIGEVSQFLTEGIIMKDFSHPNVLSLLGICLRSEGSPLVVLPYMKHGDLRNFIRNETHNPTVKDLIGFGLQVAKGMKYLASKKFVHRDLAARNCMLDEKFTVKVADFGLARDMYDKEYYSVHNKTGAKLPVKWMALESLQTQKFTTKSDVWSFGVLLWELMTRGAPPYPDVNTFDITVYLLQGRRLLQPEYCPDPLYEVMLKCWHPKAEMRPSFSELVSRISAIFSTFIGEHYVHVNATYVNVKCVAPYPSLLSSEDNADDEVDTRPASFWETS
Protocol: as §1, §2, §3
as §4, with “D-1:” for “B-1:”, “Met” for “KDR”, “R974-S1390 with A1209G and V1290L, 3.4” for “K790-V1356, 55”, “250 μM KKKGQEEEYVFIE (SEQ ID NO:3), 1 mM sodium orthovanadate, 5 mM […],” for “0.33 mg/mL myelin basic protein,”
as §5, with “D-2:” for “B-2:”, “MET” for “KDR”, “956-1390;” for “790-1356;”, “DTT” for “MnCl2,”, “MnCl2.” for “DTT.”, “(3.0” for “(4.0”

[3] = molecular target: T3, Human Mer (Homo sapiens, UniProt Q12866); experiment: Human Mer kinase assay (33P radiometric / HTRF KinEase); settings: protocols of Examples C-1 and/or C-2
T3 construct: Human Mer (residues R557-E882 with H628Q and R794A, 0.7 nM); purchased Eurofins Pharma Discovery Services UK Limited (KinaseProfiler service)
T3 sequence (Q12866 557-882 limits assumed): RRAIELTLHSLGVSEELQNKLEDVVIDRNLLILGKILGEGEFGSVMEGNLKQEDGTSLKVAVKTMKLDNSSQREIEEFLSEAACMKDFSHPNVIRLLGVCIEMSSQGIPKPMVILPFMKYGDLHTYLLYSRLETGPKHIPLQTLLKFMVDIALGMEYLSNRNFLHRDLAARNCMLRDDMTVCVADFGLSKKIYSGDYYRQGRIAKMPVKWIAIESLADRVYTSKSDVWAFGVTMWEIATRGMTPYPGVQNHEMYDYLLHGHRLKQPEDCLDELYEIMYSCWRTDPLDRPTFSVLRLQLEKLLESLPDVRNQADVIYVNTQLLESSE
Protocol: as §1, §2, §3
as §4, with “C-1:” for “B-1:”, “Mer” for “KDR”, “R557-E882 with H628Q and R794A, 0.7” for “K790-V1356, 55”, “30 mM NaCl, 250 μM GGMEDIYFEFMGGKKK (SEQ ID NO: 2),” for “0.33 mg/mL myelin basic protein,”
Example C-2: Human MER (residues 528-999; CarnaBio, 1 ng/well) was also incubated with enzymatic buffer (Cisbio) supplemented with 5 mM MgCl2 and 1 mM DTT. The mixture was added to the pre-plated compounds. The reaction was initiated upon addition of ATP at Km (40 μM). The reaction was incubated at room temperature for 60 min and stopped upon the addition of SA-XL665 and TK-antibody both diluted in EDTA-containing kinase detection buffer (Cisbio). The kinase activity was calculated as stated above and the IC50 values were reported.

SMILES: COc1cnc2c(Oc3ccc(NC(=O)c4c(C)nc(C)c(OC)c4O)cc3F)ccnc2c1 [Compound 60, N-[3-Fluoro-4-[(7-methoxy-1,5-naphthyridin-4-yl)oxy]phenyl]-4-hydroxy-5-methoxy-2,6-dimethylpyridine-3-carboxamide]
IC50 [1]: ≤ 100 nM | IC50 [2]: > 300 nM | IC50 [3]: > 300 nM

SMILES: COc1cc2nccc(Oc3ccc(NC(=O)c4c(C)n(C)c(C)c(C#N)c4=O)cc3F)c2nc1OC [Compound 78, 5-Cyano-N-[4-[(6,7-dimethoxy-1,5-naphthyridin-4-yl)oxy]-3-fluorophenyl]-1,2,6-trimethyl-4-oxopyridine-3-carboxamide]
IC50 [1]: > 300 nM | IC50 [2]: > 300 nM | IC50 [3]: > 300 nM

SMILES: COc1cc2nccc(Oc3ccc(NC(=O)c4c5n(cc(C6=CCCC6)c4=O)CCOC5)cc3F)c2nc1OC [Compound G1-1, 7-(Cyclopenten-1-yl)-N-[4-[(6,7-dimethoxy-1,5-naphthyridin-4-yl)oxy]-3-fluorophenyl]-8-oxo-3,4-dihydro-1H-pyrido[2,1-c][1,4]oxazine-9-carboxamide]
IC50 [1]: 100 to 300 nM | IC50 [2]: ≤ 100 nM | IC50 [3]: ≤ 100 nM

SMILES: COc1cnc2c(Oc3ccc(NC(=O)c4c(C)nc(C)c(OC)c4O)cc3)ccnc2c1 [Compound 59, 4-Hydroxy-5-methoxy-N-[4-[(7-methoxy-1,5-naphthyridin-4-yl)oxy]phenyl]-2,6-dimethylpyridine-3-carboxamide]
IC50 [1]: 100 to 300 nM | IC50 [2]: > 300 nM | IC50 [3]: ≤ 100 nM

SMILES: COCCOc1cc2nccc(Oc3ccc(NC(=O)c4c(C)nc(C)c(OC)c4O)cc3)c2nc1OC [Compound 71, 4-Hydroxy-5-methoxy-N-[4-[[6-methoxy-7-(2-methoxyethoxy)-1,5-naphthyridin-4-yl]oxy]phenyl]-2,6-dimethylpyridine-3-carboxamide]
IC50 [1]: ≤ 100 nM | IC50 [2]: > 300 nM | IC50 [3]: > 300 nM

SMILES: CCc1c(Br)c(=O)c(C(=O)Nc2ccc(Oc3ccnc4cc(OCCOC)c(OC)nc34)cc2)cn1C [Compound 64, 5-Bromo-6-ethyl-N-[4-[[6-methoxy-7-(2-methoxyethoxy)-1,5-naphthyridin-4-yl]oxy]phenyl]-1-methyl-4-oxopyridine-3-carboxamide]
IC50 [1]: > 300 nM | IC50 [2]: > 300 nM | IC50 [3]: ≤ 100 nM

SMILES: COc1cc2nccc(Oc3ccc(NC(=O)c4c(C)n(C)c(C)c(OC)c4=O)cc3)c2nc1OC [Compound 76, N-[4-[(6,7-Dimethoxy-1,5-naphthyridin-4-yl)oxy]phenyl]-5-methoxy-1,2,6-trimethyl-4-oxopyridine-3-carboxamide]
IC50 [1]: > 300 nM | IC50 [2]: > 300 nM | IC50 [3]: > 300 nM

SMILES: COCCOc1cnc2c(Oc3ccc(NC(=O)c4c(C)n(C)c(C)c(C5=CCOCC5)c4=O)cc3F)ccnc2c1 [Compound 67, 5-(3,6-Dihydro-2H-pyran-4-yl)-N-[3-fluoro-4-[[7-(2-methoxyethoxy)-1,5-naphthyridin-4-yl]oxy]phenyl]-1,2,6-trimethyl-4-oxopyridine-3-carboxamide]
IC50 [1]: > 300 nM | IC50 [2]: > 300 nM | IC50 [3]: > 300 nM

Continued, values first:

IC50 [1]: ≤ 100 nM | IC50 [2]: > 300 nM | IC50 [3]: ≤ 100 nM
SMILES: COc1cc2nccc(Oc3ccc(NC(=O)c4c(C)nc(C)c(OC)c4O)cc3F)c2nc1OC [Compound 62, N-[4-[(6,7-Dimethoxy-1,5-naphthyridin-4-yl)oxy]-3-fluorophenyl]-4-hydroxy-5-methoxy-2,6-dimethylpyridine-3-carboxamide]

IC50 [1]: ≤ 100 nM | IC50 [2]: ≤ 100 nM | IC50 [3]: ≤ 100 nM
SMILES: C=C(C)c1c(C)nc(C)c(C(=O)Nc2ccc(Oc3ccnc4cc(OC)cnc34)c(F)c2)c1O [Compound 3, N-[3-Fluoro-4-[(7-methoxy-1,5-naphthyridin-4-yl)oxy]phenyl]-4-hydroxy-2,6-dimethyl-5-prop-1-en-2-ylpyridine-3-carboxamide]

IC50 [1]: ≤ 100 nM | IC50 [2]: > 300 nM | IC50 [3]: > 300 nM
SMILES: COCCOc1cc2nccc(Oc3ccc(NC(=O)c4c(C)nc(C)c(OC)c4O)cc3F)c2nc1OC [Compound 70, N-[3-Fluoro-4-[[6-methoxy-7-(2-methoxyethoxy)-1,5-naphthyridin-4-yl]oxy]phenyl]-4-hydroxy-5-methoxy-2,6-dimethylpyridine-3-carboxamide]

IC50 [1]: ≤ 100 nM | IC50 [2]: ≤ 100 nM | IC50 [3]: ≤ 100 nM
SMILES: C=C(C)c1c(C)nc(C)c(C(=O)Nc2ccc(Oc3ccnc4cc(OC)c(OC)nc34)c(F)c2)c1O [Compound 5, N-[4-[(6,7-Dimethoxy-1,5-naphthyridin-4-yl)oxy]-3-fluorophenyl]-4-hydroxy-2,6-dimethyl-5-prop-1-en-2-ylpyridine-3-carboxamide]
